How the values were obtained:
Bovine heart PDE = Bovine heart PDE inhibition activity; type: biochemical; details: substrate [³H]-cyclic AMP, 37°C for 30 minutes; compound concentration not given
Protocol: [Bovine heart PDE inhibition activity]
Placed in a test tube were 50 µℓ of 0.5 M tris-HCl buffer (pH 7.5), 50 µℓ of 50 mM magnesium chloride, 50 µℓ of an enzyme solution (bovine heart, product of Boheringer Mannheim Yamanouchi Co., Ltd.), and a dimethylsulfoxide (DMSO) solution of the compound obtained in each example. Purified water was then added to a total volume of 450 µℓ, followed by incubation at 37°C for 3 minutes. Then, 50 µℓ or [³H]-cyclic AMP (0.01 mM, 1.0 x 1.0⁻⁶ dpm) as a substrate were added to initiate a reaction. After incubated at 37°C for 30 minutes, the test tube was heated for 3 minutes in a boiling water bath to terminate the reaction. After cooling, snake venem (500 µg) was added, followed by incubation at 37°C for 30 minutes. An ion-exchange resin ("Dowex-AG1-X8", trade name) was then added, followed by stirring and centrifugation. A supernatant was sampled and its radioactivity was measured by a liquid scintillation counter. Percent inhibition was determined in accordance with the following formula: [formula] where, C: Radioactivity when the compound in the example was not contained. S: Radioactivity when the compound in the example was added.

[1] = test system: Platelet phosphodiesterase (PDE); assay: Platelet phosphodiesterase (PDE) inhibition activity in washed platelets; type: biochemical, rabbit; details: 500 µM as the final concentration of the compound; washed platelet mixture; substrate [³H]-cyclic AMP, 37°C for 30 minutes
Source text: [Preparation of washed platelets]
A rabbit was held on its back on a fixing table and, under non-anesthesia, the leg femoral artery was cannulated. Next, 2 mℓ of a 3.8% aqueous solution of sodium citrate were placed in a 20-mℓ plastic syringe and 18 mℓ of the arterial blood were collected. The syringe was caused to fall down 2-3 times so that its contents were mixed. The above procedures were repeated using 3-4 syringes. The blood so collected was transferred into a plastic-made test tube and centrifuged at 800 rpm for 10 minutes at room temperature to settle blood cells, whereby an upper layer (PRP) was obtained. The PRP was next centrifuged at 3000 rpm for 10 minutes so that platelets were collected. After 12.3 mM tris-HCl buffer (pH 7.4) containing 0.137 M of NaCl, 1.54 mM of EDTA and 20 mM of glucose was added to the platelets and pipetting was conducted thoroughly, centrifugation was conducted at 3000 rpm for 10 minutes. The above procedures were repeated twice. Precipitated platelets were re-suspended in the above tris-HCl buffer at a platelet concentration of 6.5 x 10⁻⁶ platelets/µℓ. They were used as washed platelets in the subsequent experiments.
[Platelet phosphodiesterase (PDE) inhibition activity]
Placed in a test tube were 50 µℓ of 0.5 M tris-HCl buffer (pH 7.5), 50 µℓ of 50 mM magnesium chloride, 200 µℓ of the washed platelet mixture, and a dimethylsulfoxide (DMSO) solution of the compound (500 µM as the final concentration of the compound) obtained in each example. Purified water was added to a total volume of 450 µℓ, followed by incubation at 37°C for 3 minutes. Then, 50 µℓ off [³H]-cyclic AMP (0.01 mM, 1.0 x 1.0⁻⁶ dpm) as a substrate were added to initiate a reaction. […] A supernatant was sampled and its radioactivity was measured by a liquid scintillation counter. Percent inhibition was determined in accordance with the following formula: [formula] where, C: Radioactivity when the compound in the example was not contained. S: Radioactivity when the compound in the example was added.

| SMILES | Inhibition rate (%) Bovine heart PDE (Bovine heart PDE) [%] | Inhibition rate (%) Platelet PDE [1] [%] |
| --- | --- | --- |
| COc1cc2c(c(OC)c1OC)-c1c(cc3c(c1OC)OCO3)C[C@@H]1COC(=O)C1=C2 (single isomer, unassigned) [Test Compound 4, (3as,Sbiar)-3a,4-Dihydro-8,9,10,11-tetramethoxy-6,7-methylenedioxydibenzo[4,5:6,7]cycloocta-[1,2-c]furan-1(3H)-one] | 0.0 | 23.1 |
| COc1cc2c(c(OC)c1OC)-c1c(cc(O)c(O)c1OC)C[C@@H]1COC(=O)C1=C2 [Test Compound 1, (3aS,Rbiar)-3a,4-Dihydro-6,7-dihydroxy-8,9,10,11-tetramethoxydibenzo[4,5:6,7)cycloocta[1,2-c]furan-1(3H)-one] | 85.0 |  |
| COc1cc2c(c(OC)c1OC)-c1c(cc(OC)c3c1OCO3)C[C@@H]1COC(=O)C1=C2 [Test Compound 3, (3aS,Rbiar)-3a,4-Dihydro-6,9,10,11-tetramethoxy-7,8-methylenedioxydibenzo[4,5:6,7)cycloocta[1,2-c]furan-1(3H)-one] | 19.5 |  |
| COc1cc2c(c(OC)c1OC)-c1c(cc(OC)c(OC)c1OC)C[C@@H]1COC(=O)C1=C2 (single isomer, unassigned) [Test Compound 7] | 50.9 |  |
| COc1cc2c(c(OC)c1OC)-c1c(cc3c(c1OC)OCO3)C[C@@H]1COC(=O)C1=C2 (single isomer, unassigned) [Test Compound 2] | 0.0 | 25.3 |
| COc1cc2c(c(OC)c1OC)-c1c(cc(OC)c(OC)c1OC)C[C@@H]1COC(=O)C1=C2 (single isomer, unassigned) [Test Compound 8] | 36.3 |  |
| COc1cc2c(c(OC)c1OC)-c1c(cc(OC)c3c1OCO3)C[C@H]1COC(=O)C1=C2 [Test Compound 5, (3aR,Sbiar)-3a,4-Dihydro-6,9,10,11-tetramethoxy-7,8-methylenedioxybenzo[4,5:6,7]cycloocta[1,2-c]furan-1(3H)-one] | 2.8 | 44.0 |
| COc1cc2c(c(OC)c1OC)-c1c(cc(O)c(O)c1OC)CC1COC(=O)C1=C2 (stereo not drawn) [Test Compound 6, (3aRS,SRbiar)-3a,4-Dihydro-6,7-dihydroxy-8,9,10,11-tetramethoxydibenzo[4,5:6,7]cycloocta[1,2-c]-furan-1(3H)-one] | 90.5 |  |

— patent publication EP0594890A1, “Polycyclic compounds, their preparation and their use as phosphodiesterases inhibitors” (TSUMURA & CO., priority 1992, dated 1994)
